This test concerns HepG2/STING/ISG54Luc reporter cells. In words: ISG54 luciferase reporter assay. The test is classed as cell-based. The note with it: Homo sapiens, MinEC5X: minimum effective concentration to induce 5-fold luciferase activity vs mock-treated controls, 4 h post treatment, read-out: Concentration required for 5-fold of IFN-[…] induction. On the procedure:
Cell lines. Human hepatoblastoma cell line HepG2 was obtained from ATCC. Establishment of HepG2-derived cell line stably expressing human STING: HepG2 cells stably expressing wild-type human STING (HepG2/STING), were established by transduction of pCX4bsr retroviral vector (Addgene) containing the corresponding STING cDNA and selection with 10 μg/ml of blasticidin. The HepG2/STING cells were then transduced by pGreenFire ISRE lentivector system (System Biosciences) to generate a reporter cell line HepG2/STING/ISG54Luc that expresses firefly luciferase under the control of an ISG54 promoter. The pGreenFire ISRE reporter lentiviral vector contains four copies of consensus interferon stimulated response element (ISRE) sequences derived from ISG54 ISRE1, which control the expression of both green fluorescent protein (GFP) and firefly luciferase in response to IRF3 activation and IFN stimulation. HepG2/STING/ISG54Luc cells were maintained in Dulbecco's modified minimal essential medium (DMEM)/F12 (Invitrogen) supplemented with 10% fetal bovine serum, 100 U/ml penicillin and 100 μg/ml streptomycin, as well as 400 μg/ml of G418 and 2 μg/ml of puromycin.
ISG54 luciferase reporter assay: HepG2/STING/ISG54Luc reporter cells were seeded in black wall/clear bottom 96-well plates at a density of 4×10^4/well in […] of medium overnight. The test compounds were dissolved in DMSO with a stock concentration of 100 mM, and subjected to evaluation of dose-dependent effect on luciferase activity, starting from 100 μM in 2-fold dilution down to 0.78 μM. The experiments were performed in triplex wells.
The firefly luciferase activities were determined at 4 h post treatment with test compounds by using equal volume ([…]) of Steady-Glo to the culture medium (Promega), followed by luminometry in a TopCounter (Perkin Elmer).
Reporting the ISG54 promotor activation activity. The luciferase activities were converted to fold of induction relative to mock treated control. A dose-dependent curve of luciferase activities (fold of induction) for each test compound was generated using average value from the triplex wells. The activity of the test compounds was reported based on the Minimum Effective Concentration (MinEC5X) to induce 5-fold luciferase activity than that of the mock-treated controls.
On the technique in general: In a reporter assay the amount or activity of a reporter protein is the signal.

The structures appear in SMILES notation. Where only a bound is given, the exact number is not on record here.

As for `O=C(Nc1cccc2ccccc12)c1cc2c(cc1Br)OCO2`, the EC (5-fold induction) is no more than 50 µM.

In the case of `O=C(Nc1cccc2ccccc12)c1ccccc1Br`, the EC (5-fold induction) is 50 to 100 µM.

Regarding `O=C(Nc1cccc2ccccc12)c1ccc(Cl)cc1Br`, the EC (5-fold induction) was no more than 50 µM. The figure for `O=C(Nc1cccc2ccccc12)c1ccc(Cl)cc1F` is no more than 50 µM; for `COc1ccc(C(=O)Nc2cccc3ccccc23)c(Br)c1` it is no more than 50 µM; for `O=C(Nc1cccc2ccccc12)c1ccc(Cl)cc1Cl` it is no more than 50 µM.

As to `Cc1cc(Cl)ccc1C(=O)Nc1cccc2ccccc12`, the EC (5-fold induction) was no more than 50 µM. As for `O=C(Nc1cccc2ccccc12)c1cc(F)c(F)cc1Br`, the EC (5-fold induction) was no more than 50 µM. For `O=C(Nc1cccc2ccccc12)c1cc(F)ccc1Br`, the EC (5-fold induction) was no more than 50 µM.

`O=C(Nc1cccc2ccccc12)c1cccc(Cl)c1Cl`: the EC (5-fold induction) is no more than 50 µM. The value for `O=C(Nc1cccc2ccccc12)c1nccnc1Cl` was no more than 50 µM; that for `Cn1nc(C(=O)Nc2cccc3ccccc23)c2ccccc21` was no more than 50 µM. The value for `O=C(Nc1cccc2c1CCCC2)c1cc2c(cc1Br)OCO2` was no more than 50 µM. `Cc1cccc(NC(=O)c2cc3c(cc2Br)OCO3)c1Br`: the EC (5-fold induction) was no more than 50 µM. With `O=C(Nc1cccc(Cl)c1Cl)c1cc2c(cc1Br)OCO2`, the EC (5-fold induction) is no more than 50 µM. The figure for `O=C(Nc1cccc2ccccc12)c1ccc(F)cc1Br` is no more than 50 µM; for `O=C(Nc1cccc2ccccc12)c1ccc(Br)cc1Cl` it is no more than 50 µM. The value for `Cc1cccc(NC(=O)c2cc(F)c(F)cc2Br)c1C` was 50 to 100 µM; that for `O=C(Nc1cccc2c1CCC2)c1cc2c(cc1Br)OCO2` was no more than 50 µM.

On to `O=C1CCN(C(=O)c2cc3c(cc2Br)OCO3)c2ccccc21`, for which the EC (5-fold induction) was no more than 50 µM. The figure for `Cc1c(Br)cccc1NC(=O)c1cc2c(cc1Br)OCO2` is no more than 50 µM; for `Cc1cccc(NC(=O)c2cc3c(cc2Br)OCO3)c1C` it is no more than 50 µM.

For the compound `Cc1cccc(C)c1NC(=O)c1cc2c(cc1Br)OCO2`, the EC (5-fold induction) was no more than 50 µM. The figure for `Cc1c(F)cccc1NC(=O)c1cc2c(cc1Br)OCO2` is no more than 50 µM; for `O=C(Nc1cccc2c1CCCC2)c1cc(F)c(F)cc1Br` it is no more than 50 µM; for `C=C(C)c1ccccc1NC(=O)c1cc2c(cc1Br)OCO2` it is no more than 50 µM. The figure for `O=C(Nc1cccc2c1CCC2)c1cc(F)c(F)cc1Br` is no more than 50 µM.

The record behind these values is patent US12509436B2, “Benzamide derivatives as cGAS-sting pathway agonists” (Baruch S. Blumberg Institute, priority 2018, dated 2025).
